According to US9062074B2, “(9E)-15-(2-pyrrolidin-1-yl-ethoxy)-7,12,25-trioxa-19,21,24-triaza-tetracyclo[18.3.1.1(2.5).1(14,18)]hexacosa-1(24),2,4,9,14,16,18(26),20,22-nonaene citrate salt” (CTI BioPharma Corp., priority 2009, dated 2015):
Like-named read-outs stand apart in the source and are kept apart here.

How the values were obtained:
Assay type in all cases: physicochemical
[1] = Differential Scanning Calorimetry (DSC); details: from DSC endotherm shape and TGA weight loss
Procedure: Differential Scanning Calorimetry (DSC) data were collected on a Mettler DSC 823e equipped with a 34 position auto-sampler. The instrument was calibrated for energy and temperature using certified indium. Typically 0.5-3 mg of each sample, in a pin-holed aluminium pan, was heated at 10° C.min^−1 from 25° C. to 350° C. A nitrogen purge at 50 ml.min^−1 was maintained over the sample. The instrument control and data analysis software was STARe v9.10.

[2] = Thermogravimetric Analysis (TGA)
Procedure: Thermogravimetric Analysis (TGA) data were collected on a Mettler TGA/SDTA 851e equipped with a 34 position autosampler. The instrument was temperature calibrated using certified indium. Typically 5-30 mg of each sample was loaded onto a pre-weighed aluminium crucible and was heated at 10° C.min^−1 from ambient temperature to 350° C. A nitrogen purge at 50 ml.min^−1 was maintained over the sample. The instrument control and data analysis software was STARe v9.10.

[3] = Solubility assessment (solvent added in 10 volume aliquots); details: organic solvent or mixture, thermodynamic from solid, read-out: Solubility assessment observation
Procedure: For each solvent investigated, approximately 8 mg of compound 1 was weighed into an 8 ml screw top glass vial. The solvent was added in 10 volume aliquots and the mixture sonicated and warmed (with a hot-air gun) to encourage dissolution. If dissolution was not achieved after the addition of 100 volumes of solvent, a further 100 volumes was added.

[4] = Phase stability by XRPD after storage at 40° C. and 75% relative humidity for one week; details: solid form by low resolution XRPD after one week
Procedure: Condition 2 (Low Resolution)
X-Ray Powder Diffraction patterns were also collected on a Bruker D8 diffractometer using Cu K[…] radiation (40 kV, 40 mA), θ-2θ goniometer, and divergence of V4 and receiving slits, a Ge monochromator and a Lynxeye detector. The instrument is performance checked using a certified Corundum standard (NIST 1976). The software used for data collection was Diffrac Plus XRD Commander v2.5.0 and the data were analysed and presented using Diffrac Plus EVA v 11.0.0.2 or v 13.0.0.2. Samples were run under ambient conditions as flat plate specimens using powder as received. Approximately 15 mg of the sample was gently packed into a cavity cut into polished, zerobackground (510) silicon wafer. The sample was rotated in its own plane during analysis. The details of the data collection are:
The samples which had been prepared for the collection of low resolution XRPD traces were placed in a chamber maintained at 40° C. and 75% relative humidity. After one week the samples were reanalysed by low resolution XRPD (Condition 2), to check for phase changes. It can be seen that no phase change has occurred, and that citrate salts of the invention are stable for at least one week under these conditions.

SMILES: C1=C2COC/C=C/COCc3cc(ccc3OCCN3CCCC3)Nc3nccc(n3)C(=C1)O2 [Batch 4]
- temperature above which gross degradation is occurring [1]: > 176 °C
- Thermogravimetric Analysis weight change ([2]; 160 to 250° C.): −20% w/w 160 to 250 °C
- Thermogravimetric Analysis weight change ([2]; ambient to 160° C.): −0.4% w/w ambient to
- weight loss in TGA corresponding to DSC thermal event ([2]; at thermal event at 176° C.): ~20%
- solubility ([3]; TBME, TBME, 10 vols): < 100 mg/mL
- solubility ([3]; TBME, TBME, 20 vols): < 50 mg/mL
- solubility ([3]; TBME, TBME, 30 vols): < 33.3 mg/mL
- solubility ([3]; TBME, TBME, 40 vols): < 25 mg/mL
- solubility ([3]; TBME, TBME, 50 vols): < 20 mg/mL
- solubility ([3]; TBME, TBME, 60 vols): < 16.7 mg/mL
- solubility ([3]; TBME, TBME, 70 vols): < 14.3 mg/mL
- solubility ([3]; TBME, TBME, 80 vols): < 12.5 mg/mL
- solubility ([3]; TBME, TBME, 90 vols): < 11.1 mg/mL
- solubility ([3]; TBME, TBME, 100 vols): < 10 mg/mL
- solubility ([3]; TBME, TBME, 200 vols): < 5 mg/mL
- solubility ([3]; ethyl acetate, Ethyl acetate, 10 vols): < 100 mg/mL
- solubility ([3]; ethyl acetate, Ethyl acetate, 20 vols): < 50 mg/mL
- solubility ([3]; ethyl acetate, Ethyl acetate, 30 vols): < 33.3 mg/mL
- solubility ([3]; ethyl acetate, Ethyl acetate, 40 vols): < 25 mg/mL
- solubility ([3]; ethyl acetate, Ethyl acetate, 50 vols): < 20 mg/mL
- solubility ([3]; ethyl acetate, Ethyl acetate, 60 vols): < 16.7 mg/mL
- solubility ([3]; ethyl acetate, Ethyl acetate, 70 vols): < 14.3 mg/mL
- solubility ([3]; ethyl acetate, Ethyl acetate, 80 vols): < 12.5 mg/mL
- solubility ([3]; ethyl acetate, Ethyl acetate, 90 vols): < 11.1 mg/mL
- solubility ([3]; ethyl acetate, Ethyl acetate, 100 vols): < 10 mg/mL
- solubility ([3]; ethyl acetate, Ethyl acetate, 200 vols): < 5 mg/mL
- solubility ([3]; i-propyl acetate, i-propyl acetate, 10 vols): < 100 mg/mL
- solubility ([3]; i-propyl acetate, i-propyl acetate, 20 vols): < 50 mg/mL
- solubility ([3]; i-propyl acetate, i-propyl acetate, 40 vols): < 25 mg/mL
- solubility ([3]; i-propyl acetate, i-propyl acetate, 60 vols): < 16.7 mg/mL
- solubility ([3]; i-propyl acetate, i-propyl acetate, 80 vols): < 12.5 mg/mL
- solubility ([3]; i-propyl acetate, i-propyl acetate, 100 vols): < 10 mg/mL
- solubility ([3]; i-propyl acetate, i-propyl acetate, 200 vols): < 5 mg/mL
- solubility ([3]; toluene, Toluene, 10 vols): < 100 mg/mL
- solubility ([3]; toluene, Toluene, 20 vols): < 50 mg/mL
- solubility ([3]; toluene, Toluene, 30 vols): < 33.3 mg/mL
- solubility ([3]; toluene, Toluene, 40 vols): < 25 mg/mL
- solubility ([3]; toluene, Toluene, 50 vols): < 20 mg/mL
- solubility ([3]; toluene, Toluene, 60 vols): < 16.7 mg/mL
- solubility ([3]; toluene, Toluene, 70 vols): < 14.3 mg/mL
- solubility ([3]; toluene, Toluene, 80 vols): < 12.5 mg/mL
- solubility ([3]; toluene, Toluene, 90 vols): < 11.1 mg/mL
- solubility ([3]; toluene, Toluene, 100 vols): < 10 mg/mL
- solubility ([3]; toluene, Toluene, 200 vols): < 5 mg/mL
- Phase Stability 1 wk @ 40° C./75% RH [4]: Crystalline Form 1
